Test results: publication PMC6226112 (Clinical and Translational Science, 2018)
Read-outs that look alike come from different tables or passages of the source.

Tests used:
[1] = both, human, in vivo
clinical [2] = conditions: both, human, in vivo
[3] = Trial 1 safety and tolerability; conditions: for Number of AEs considered related to the drug(s): 73 drug-related of 78 AEs
clinical [4] = conditions: human, in vivo
[5] = GZR alone 200 mg once daily, ref historical database, cited from earlier work
[6] = Trial 2 safety and tolerability
[7] = steady state; cited from earlier work
[8] = human, in vivo

Question: With `COC(=O)N[C@H](C(=O)N1CCC[C@H]1c1nc(-c2ccc3c(c2)O[C@@H](c2ccccc2)n2c-3cc3cc(-c4c[nH]c([C@@H]5CCCN5C(=O)[C@@H](NC(=O)OC)C(C)C)n4)ccc32)c[nH]1)C(C)C` [EBR, elbasvir] as the molecule, how does the “GMRs for AUC0-∞, Cmax, and C24 (range over the three parameters)” value [1] read?
Answer: 1.13–1.22

Question: What about the AUC(0-inf) (clinical [2]) of the same molecule?
Answer: 2.55 µM·h

Question: What about the Tmax (clinical [2]) of the same molecule?
Answer: 3.01 h

Question: And the AUC(0-inf) (clinical [2]; po, 50 mg)?
Answer: 2.08 µM·h

Question: What about the “Tolerability of coadministration with BUP/NAL” value [3] of the same molecule?
Answer: generally well tolerated

Question: And the “Number of AEs considered related to the drug(s)” value [3]?
Answer: 4

Question: Which AUC(0-t) (clinical [4]) does the source give for `C=C[C@@H]1C[C@]1(NC(=O)[C@@H]1C[C@@H]2CN1C(=O)[C@H](C(C)(C)C)NC(=O)O[C@@H]1C[C@H]1CCCCCc1nc3ccc(OC)cc3nc1O2)C(=O)NS(=O)(=O)C1CC1` [GZR, grazoprevir] here?
Answer: 2.13 µM·h

Question: What about the Cmax (clinical [4]) of the same molecule?
Answer: 473 nM

Question: And the Tmax (clinical [4])?
Answer: 4 h

Question: What about the “C24, GM” value [5] of the same molecule?
Answer: 13.9 nM

Question: And the Cmax ([5]; read-out: Cmax, GM)?
Answer: 583 nM

Question: And the “Tolerability of coadministration with BUP/NAL” value [6]?
Answer: generally well tolerated

Question: And the “Exposure in HCV-infected people compared with healthy people” value [7]?
Answer: ~2 fold

Question: And the “C24, GM” value [8]?
Answer: 13.5 nM

Question: And the “GMRs for AUC0-24, Cmax, and C24 (range over the three parameters)” value [8]?
Answer: 0.80–0.97

Question: Which results are given for `C=CCN1CC[C@]23c4c5ccc(O)c4O[C@H]2C(=O)CC[C@@]3(O)[C@H]1C5` [NAL, naloxone]?
Answer: Tmax (clinical [4]): 1.24 h; AUC(0-inf) (clinical [2]): 0.416 ng·h/mL; Cmax (clinical [2]): 0.139 ng/mL; Tmax (clinical [2]): 0.98 h; AUC(0-inf) (clinical [2]; 2 mg): 0.47 ng·h/mL; Cmax (clinical [2]; 2 mg): 0.165 ng/mL; Apparent terminal T½, GM [8]: 5.20 h; Cmax/D, GM [8]: 0.149 ng/mL/mg

Question: Which “Number of AEs considered related to the drug(s)” value [3] does the source give for `O=C1CC[C@@]2(O)[C@H]3Cc4ccc(O)c5c4[C@@]2(CCN3CC2CC2)[C@H]1O5` [NTX, naltrexone] here?
Answer: three
